Measurements: patent publication US9650395B2, “Antibacterial compounds and methods for use” (PTC Therapeutics, Inc., priority 2011, dated 2017)
Values after ≈ are worked out from the molar mass of the structure shown. Where two headings read alike, the source gives them in different places.

Columns and labels:
[1] = test system: control Gram-negative E. coli 25922 strain; experiment: Antibacterial activity, microbroth dilution MIC, E. coli 25922; format: cell-based, Escherichia coli; details: Escherichia coli; E. coli 25922, microbroth dilution; read-out: MIC, 25922
[2] = test system: super sensitive Gram-negative Escherichia coli (E. coli) BAS849; experiment: Antibacterial activity, microbroth dilution MIC, E. coli BAS849; format: cell-based; details: Escherichia coli, read-out: MIC, BAS849
[3] = test system: Gram-positive Staphylococcus aureus (S. aureus) 29213; experiment: Antibacterial activity, microbroth dilution MIC, S. aureus 29213; format: cell-based; details: Staphylococcus aureus; S. aureus 29213, microbroth dilution; read-out: MIC, 29213
[4] = E. coli BAS849, microbroth dilution

Row | Compound | MIC [1] [µg/mL] | MIC [2, 4] [µg/mL] | MIC [3] [µg/mL] | MIC [2] [µg/mL]
1 | CCc1c(-c2ccc(N(C)C)c(OC)c2)[nH]c(=O)c(C(=O)O)c1O [Cpd 65, 6-[4-(dimethylamino)-3-methoxyphenyl]-5-ethyl-4-hydroxy-2-oxo-1,2-dihydropyridine-3-carboxylic acid] | 12.5 to 150 (≈ 37.6 to 451 µM) | 3.5 to 12.5 (≈ 10.5 to 37.6 µM) | 12.5 to 150 (≈ 37.6 to 451 µM) | 
2 | CCc1cc(C(=O)O)c(=O)[nH]c1-c1ccc(N2CCCC2)c(OC)c1 [Cpd 66, 5-ethyl-6-[3-methoxy-4-(pyrrolidin-1-yl)phenyl]-2-oxo-1,2-dihydropyridine-3-carboxylic acid] | 12.5 to 150 (≈ 36.5 to 438 µM) | 3.5 to 12.5 (≈ 10.2 to 36.5 µM) | 12.5 to 150 (≈ 36.5 to 438 µM) | 
3 | CCc1c(-c2ccc(N3CCCC3)c(OC)c2)[nH]c(=O)c(C(=O)O)c1O [Cpd 67, 5-ethyl-4-hydroxy-6-[3-methoxy-4-(pyrrolidin-1-yl)phenyl]-2-oxo-1,2-dihydropyridine-3-carboxylic acid] | 12.5 to 150 (≈ 34.9 to 419 µM) | 3.5 to 12.5 (≈ 9.77 to 34.9 µM) | 1 to 3.5 (≈ 2.79 to 9.77 µM) | 
4 | CCc1c(-c2ccc(N3CCCCC3)c(OC)c2)[nH]c(=O)c(C(=O)O)c1O [Cpd 69, 5-ethyl-4-hydroxy-6-[3-methoxy-4-(piperidin-1-yl)phenyl]-2-oxo-1,2-dihydropyridine-3-carboxylic acid] | 12.5 to 150 (≈ 33.6 to 403 µM) | 3.5 to 12.5 (≈ 9.4 to 33.6 µM) | 3.5 to 12.5 (≈ 9.4 to 33.6 µM) | 
5 | CCc1cc(C(=O)O)c(=O)[nH]c1-c1ccc(N2CCCC2)c(C)c1 [Cpd 70, 5-ethyl-6-[3-methyl-4-(pyrrolidin-1-yl)phenyl]-2-oxo-1,2-dihydropyridine-3-carboxylic acid] | 12.5 to 150 (≈ 38.3 to 460 µM) | < 1 | 12.5 to 150 (≈ 38.3 to 460 µM) | 
6 | CCc1c(-c2ccc(N3CCCC3)c(C)c2)[nH]c(=O)c(C(=O)O)c1O [Cpd 71, 5-ethyl-4-hydroxy-6-[3-methyl-4-(pyrrolidin-1-yl)phenyl]-2-oxo-1,2-dihydropyridine-3-carboxylic acid] | 12.5 to 150 (≈ 36.5 to 438 µM) | 1 to 3.5 (≈ 2.92 to 10.2 µM) | 3.5 to 12.5 (≈ 10.2 to 36.5 µM) | 
7 | CCc1cc(C(=O)O)c(=O)[nH]c1-c1ccc(N2CCCCC2)c(C)c1 [Cpd 72, 5-ethyl-6-[3-methyl-4-(piperidin-1-yl)phenyl]-2-oxo-1,2-dihydropyridine-3-carboxylic acid] | 12.5 to 150 (≈ 36.7 to 441 µM) | 3.5 to 12.5 (≈ 10.3 to 36.7 µM) | 12.5 to 150 (≈ 36.7 to 441 µM) | 
8 | CCc1c(-c2ccc(N3CCCCC3)c(C)c2)[nH]c(=O)c(C(=O)O)c1O [Cpd 73, 5-ethyl-4-hydroxy-6-[3-methyl-4-(piperidin-1-yl)phenyl]-2-oxo-1,2-dihydropyridine-3-carboxylic acid] | 12.5 to 150 (≈ 35.1 to 421 µM) | 3.5 to 12.5 (≈ 9.82 to 35.1 µM) | 3.5 to 12.5 (≈ 9.82 to 35.1 µM) | 
9 | CCc1c(-c2ccc(F)cc2)[nH]c(=O)c(C(=O)O)c1O [Cpd 74, 5-ethyl-6-(4-fluorophenyl)-4-hydroxy-2-oxo-1,2-dihydropyridine-3-carboxylic acid] | 12.5 to 150 (≈ 45.1 to 541 µM) | 3.5 to 12.5 (≈ 12.6 to 45.1 µM) | 12.5 to 150 (≈ 45.1 to 541 µM) | 
10 | CCc1cc(C(=O)O)c(=O)[nH]c1-c1ccc(Cl)cc1 [Cpd 76, 6-(4-chlorophenyl)-5-ethyl-2-oxo-1,2-dihydropyridine-3-carboxylic acid] | 12.5 to 150 (≈ 45 to 540 µM) | 12.5 to 150 (≈ 45 to 540 µM) | 12.5 to 150 (≈ 45 to 540 µM) | 
11 | CCc1c(-c2ccc(Cl)cc2)[nH]c(=O)c(C(=O)O)c1O [Cpd 77, 6-(4-chlorophenyl)-5-ethyl-4-hydroxy-2-oxo-1,2-dihydropyridine-3-carboxylic acid] | 12.5 to 150 (≈ 42.6 to 511 µM) | 1 to 3.5 (≈ 3.4 to 11.9 µM) | 3.5 to 12.5 (≈ 11.9 to 42.6 µM) | 
12 | CCc1cc(C(=O)O)c(=O)[nH]c1-c1ccc(Br)cc1 [Cpd 78, 6-(4-bromophenyl)-5-ethyl-2-oxo-1,2-dihydropyridine-3-carboxylic acid] | 12.5 to 150 (≈ 38.8 to 466 µM) | 3.5 to 12.5 (≈ 10.9 to 38.8 µM) | 12.5 to 150 (≈ 38.8 to 466 µM) | 
13 | CCc1c(-c2ccc(Br)cc2)[nH]c(=O)c(C(=O)O)c1O [Cpd 79, 6-(4-bromophenyl)-5-ethyl-4-hydroxy-2-oxo-1,2-dihydropyridine-3-carboxylic acid] | 12.5 to 150 (≈ 37 to 444 µM) | < 1 | 3.5 to 12.5 (≈ 10.4 to 37 µM) | 
14 | CCc1cc(C(=O)O)c(=O)[nH]c1-c1ccc(I)cc1 [Cpd 80, 5-ethyl-6-(4-iodophenyl)-2-oxo-1,2-dihydropyridine-3-carboxylic acid] | 12.5 to 150 (≈ 33.9 to 406 µM) | 3.5 to 12.5 (≈ 9.48 to 33.9 µM) | 12.5 to 150 (≈ 33.9 to 406 µM) | 
15 | CCc1c(-c2ccc(I)cc2)[nH]c(=O)c(C(=O)O)c1O [Cpd 81, 5-ethyl-4-hydroxy-6-(4-iodophenyl)-2-oxo-1,2-dihydropyridine-3-carboxylic acid] | 12.5 to 150 (≈ 32.5 to 389 µM) | 1 to 3.5 (≈ 2.6 to 9.09 µM) | 3.5 to 12.5 (≈ 9.09 to 32.5 µM) | 
16 | CCc1cc(C(=O)O)c(=O)[nH]c1-c1ccc(N2CC3(CCCCC3)CC2=O)cc1 [Cpd 118, 5-ethyl-2-oxo-6-[4-(3-oxo-2-azaspiro[4.5]dec-2-yl)phenyl]-1,2-dihydropyridine-3-carboxylic acid] | 12.5 to 150 (≈ 31.7 to 380 µM) | 3.5 to 12.5 (≈ 8.87 to 31.7 µM) | 12.5 to 150 (≈ 31.7 to 380 µM) | 
17 | CCc1cc(C(=O)O)c(=O)[nH]c1-c1ccc(N2C(=O)C3C=CC2C3)cc1 (stereo not drawn) [Cpd 119, 5-ethyl-2-oxo-6-[4-(3-oxo-2-azabicyclo[2.2.1]hept-5-en-2-yl)phenyl]-1,2-dihydropyridine-3-carboxylic acid] | 12.5 to 150 (≈ 35.7 to 428 µM) | 1 to 3.5 (≈ 2.85 to 9.99 µM) | 12.5 to 150 (≈ 35.7 to 428 µM) | 
18 | CCc1cc(C(=O)O)c(=O)[nH]c1-c1ccc(N2CC(OC3CCCCO3)C2)cc1 (stereo not drawn) [Cpd 120, 5-ethyl-2-oxo-6-{4-[3-(tetrahydro-2H-pyran-2-yloxy)azetidin-1-yl]phenyl}-1,2-dihydropyridine-3-carboxylic acid] | 12.5 to 150 (≈ 31.4 to 376 µM) | < 1 | 12.5 to 150 (≈ 31.4 to 376 µM) | 
19 | CCc1cc(C(=O)O)c(=O)[nH]c1-c1ccc(N2CCC[C@@H](O)C2)cc1 [Cpd 122, 5-ethyl-6-{4-[(3R)-3-hydroxypiperidin-1-yl]phenyl}-2-oxo-1,2-dihydropyridine-3-carboxylic acid] | 3.5 to 12.5 (≈ 10.2 to 36.5 µM) | < 1 | 12.5 to 150 (≈ 36.5 to 438 µM) | 
20 | CCc1c(-c2ccc(N3CCC[C@@H](O)C3)cc2)[nH]c(=O)c(C(=O)O)c1O [Cpd 125, 5-ethyl-4-hydroxy-6-{4-[(3R)-3-hydroxypiperidin-1-yl]phenyl}-2-oxo-1,2-dihydropyridine-3-carboxylic acid] | 3.5 to 12.5 (≈ 9.77 to 34.9 µM) | < 1 | 12.5 to 150 (≈ 34.9 to 419 µM) | 
21 | CCc1cc(C(=O)OC)c(=O)[nH]c1-c1ccc(N2CCC(OCc3ccccc3)C2)cc1 (stereo not drawn) [Cpd 127, methyl 6-{4-[3-(benzyloxy)pyrrolidin-1-yl]phenyl}-5-ethyl-2-oxo-1,2-dihydropyridine-3-carboxylate] | 12.5 to 150 (≈ 28.9 to 347 µM) | 12.5 to 150 (≈ 28.9 to 347 µM) | 12.5 to 150 (≈ 28.9 to 347 µM) | 
22 | CCc1cc(C(=O)O)c(=O)[nH]c1-c1ccc(N2C[C@@H](N)[C@H](O)C2)cc1.Cl [Cpd 133, 6-{4-[(3R,4R)-3-amino-4-hydroxypyrrolidin-1-yl]phenyl}-5-ethyl-2-oxo-1,2-dihydropyridine-3-carboxylic acid hydrochloride] | 12.5 to 150 | 1 to 3.5 | 12.5 to 150 | 
23 | CCc1cc(C(=O)O)c(=O)[nH]c1-c1ccc(N2CC3CC2CN3C(=O)OC(C)(C)C)cc1 (stereo not drawn) [Cpd 137, 6-{4-[5-(tert-butoxycarbonyl)-2,5-diazabicyclo[2.2.1]hept-2-yl]phenyl}-5-ethyl-2-oxo-1,2-dihydropyridine-3-carboxylic acid] | 12.5 to 150 (≈ 28.4 to 341 µM) |  | 12.5 to 150 (≈ 28.4 to 341 µM) | < 1
24 | CCc1cc(C(=O)O)c(=O)[nH]c1-c1ccc(N2CCC[C@H]2CN2CCCC2)cc1.O=C(O)C(F)(F)F [Cpd 143, 5-ethyl-2-oxo-6-{4-[(2S)-2-(pyrrolidin-1-ylmethyl)pyrrolidin-1-yl]phenyl}-1,2-dihydropyridine-3-carboxylic acid trifluoroacetate] | 12.5 to 150 |  | 12.5 to 150 | 3.5 to 12.5
